# Measured values reported in US6809065B2, “Herbicide containing substituted pyrazole derivative as active ingredient” (SDS Biotech K.K., priority 2001, dated 2004).
# How the values were obtained:
# Stellaria media [1] = assay: Upland soil treatment (Test Example 2); assay type: in vivo; details: soil surface treatment next day after sowing, wettable powder, 1 kg active ingredient per hectare, evaluated 21st day after application
# How it was run: (§1)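 Index rating at day 21 after a single pre-emergence soil-surface application, 1 kg a.i./ha, made the day after sowing in upland soil; for crops a lower index indicates higher safety.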
# Digitaria adscendens [2] = assay: Upland soil treatment (Test Example 2); assay type: in vivo; details: soil surface treatment next day after sowing, wettable powder, 1 kg active ingredient per hectare, evaluated 21st day after application
# How it was run: as §1
# Setaria viridis [3] = assay: Upland soil treatment (Test Example 2); assay type: in vivo; details: soil surface treatment next day after sowing, wettable powder, 1 kg active ingredient per hectare, evaluated 21st day after application
# How it was run: as §1
# Chenopodium album [4] = assay: Upland soil treatment (Test Example 2); assay type: in vivo; details: soil surface treatment next day after sowing, wettable powder, 1 kg active ingredient per hectare, evaluated 21st day after application
# How it was run: as §1
# soybean (Glycine max) [5] = assay: Upland soil treatment (Test Example 2), crop; assay type: in vivo; details: soil surface treatment next day after sowing, 1 kg active ingredient per hectare, evaluated 21st day, lower index = higher safety
# How it was run: as §1
# [6] = tested on: wheat (Triticum aestivum); assay: Upland soil treatment (Test Example 2), crop; assay type: in vivo; details: soil surface treatment next day after sowing, 1 kg active ingredient per hectare, evaluated 21st day, lower index = higher safety
# How it was run: as §1
# soybean (Glycine max) [7] = assay: Upland field foliage treatment (Test Example 1), crop; assay type: in vivo; details: foliage treatment 14th day after sowing, 1 kg active ingredient per hectare, evaluated 21st day, lower index = higher safety
# How it was run: (§2)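 Weeds and crops were sown in upland soil under about 1 cm cover, and a wettable powder diluted in water was sprayed on the foliage 14 days after sowing at 1 kg active ingredient per hectare. Scoring was done 21 days after application on an index scale, where higher weed scores mean stronger herbicidal effect and lower crop scores mean greater crop safety.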
# [8] = tested on: wheat (Triticum aestivum); assay: as above; assay type: in vivo; details: foliage treatment 14th day after sowing, 1 kg active ingredient per hectare, evaluated 21st day, lower index = higher safety
# How it was run: as §2
# Echinochloa spp. = assay: Paddy field treatment (Test Example 3); assay type: in vivo, Echinochloa crusgalli; details: paddy pot, submerged 4 cm, dropped on water surface 10th day after transplantation, 1 kg active ingredient per hectare, evaluated 21st day
# How it was run: (§3)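 Weeds sown in puddled paddy soil under 4 cm water, with two-leaf Koshihikari rice transplanted at 3 cm depth. On day 10 after transplanting, wettable powder applied to the water surface at 1 kg active ingredient per hectare. Herbicidal effect and crop safety scored on an index 21 days later.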
# [9] = tested on: rice (Oryza sative, variety: Koshihikari); assay: Paddy field treatment (Test Example 3), crop; assay type: in vivo, Oryza sativa; details: transplanted rice two-leaf period, water surface treatment 10th day after transplantation, 1 kg active ingredient per hectare, evaluated 21st day, lower index = higher safety
# How it was run: as §3
# Ammannia multiflora = assay: Paddy field treatment (Test Example 3); assay type: in vivo; details: paddy pot, submerged 4 cm, dropped on water surface 10th day after transplantation, 1 kg active ingredient per hectare, evaluated 21st day
# How it was run: as §3
# Scirpus juncoides = assay: Paddy field treatment (Test Example 3); assay type: in vivo; details: paddy pot, submerged 4 cm, dropped on water surface 10th day after transplantation, 1 kg active ingredient per hectare, evaluated 21st day
# How it was run: as §3
# Monochoria vaginalis = assay: Paddy field treatment (Test Example 3); assay type: in vivo; details: paddy pot, submerged 4 cm, dropped on water surface 10th day after transplantation, 1 kg active ingredient per hectare, evaluated 21st day
# How it was run: as §3
# Stellaria media [10] = assay: Upland field foliage treatment (Test Example 1); assay type: in vivo; details: foliage treatment 14th day after sowing, wettable powder, 1 kg active ingredient per hectare, evaluated 21st day after application
# How it was run: as §2
# Digitaria adscendens [11] = assay: Upland field foliage treatment (Test Example 1); assay type: in vivo; details: foliage treatment 14th day after sowing, wettable powder, 1 kg active ingredient per hectare, evaluated 21st day after application
# How it was run: as §2
# Setaria viridis [12] = assay: Upland field foliage treatment (Test Example 1); assay type: in vivo; details: foliage treatment 14th day after sowing, wettable powder, 1 kg active ingredient per hectare, evaluated 21st day after application
# How it was run: as §2
# Chenopodium album [13] = assay: Upland field foliage treatment (Test Example 1); assay type: in vivo; details: foliage treatment 14th day after sowing, wettable powder, 1 kg active ingredient per hectare, evaluated 21st day after application
# How it was run: as §2
compound,measurement,setting,value
COC=C(Cn1nc(-c2ccccc2)c(Cl)c1C)C(=O)OC [Compound 12],Herbicidal activity Stellaria media,Stellaria media [1],4 (herbicidal effect of not less than 70% by weight and less than 90% by weight)
same,Herbicidal activity Digitaria adscendens,Digitaria adscendens [2],5 (herbicidal effect of not less than 90% by weight)
same,Herbicidal activity Setaria viridis,Setaria viridis [3],4 (herbicidal effect of not less than 70% by weight and less than 90% by weight)
same,Herbicidal activity Chenopodium album,Chenopodium album [4],5 (herbicidal effect of not less than 90% by weight)
same,Herbicidal activity Glycine max,soybean (Glycine max) [5],0 (herbicidal effect of not less than 0% by weight and less than 10% by weight)
same,Herbicidal activity Triticum aestivum,[6],0 (herbicidal effect of not less than 0% by weight and less than 10% by weight)
same,Herbicidal activity Glycine max,soybean (Glycine max) [7],1 (herbicidal effect of not less than 10% by weight and less than 30% by weight)
same,Herbicidal activity Triticum aestivum,[8],0 (herbicidal effect of not less than 0% by weight and less than 10% by weight)
same,Herbicidal activity Echinochloa spp.,Echinochloa spp.,4 (herbicidal effect of not less than 70% by weight and less than 90% by weight)
same,Herbicidal activity Oryza sativa,[9],0 (herbicidal effect of not less than 0% by weight and less than 10% by weight)
same,Herbicidal activity Ammannia multiflora,Ammannia multiflora,5 (herbicidal effect of not less than 90% by weight)
same,Herbicidal activity Scirpus juncoides,Scirpus juncoides,4 (herbicidal effect of not less than 70% by weight and less than 90% by weight)
same,Herbicidal activity Monochoria vaginalis,Monochoria vaginalis,5 (herbicidal effect of not less than 90% by weight)
same,Herbicidal activity Stellaria media,Stellaria media [10],5 (herbicidal effect of not less than 90% by weight)
same,Herbicidal activity Digitaria adscendens,Digitaria adscendens [11],5 (herbicidal effect of not less than 90% by weight)
same,Herbicidal activity Setaria viridis,Setaria viridis [12],4 (herbicidal effect of not less than 70% by weight and less than 90% by weight)
same,Herbicidal activity Chenopodium album,Chenopodium album [13],5 (herbicidal effect of not less than 90% by weight)
